Measurements as given in patent US4929620A, “5-pyrimidinyl-3,5-dihydroxy-6-heptenoic acid compounds useful as inhibitors of cholesterol biosynthesis” (Warner-Lambert Company, priority 1989, dated 1990).
pIC50: −log10 of the molar value.

System: sterol synthesis
Test: CSI screen: incorporation of 14C-acetate into nonsaponifiable lipid by rat liver homogenate (inhibition of cholesterol biosynthesis)
Assay type: biochemical
Conditions: 50% inhibition of sterol synthesis over a one-hour period, livers of rats fed 5% cholestyramine chow for four days
Procedure: The ability of compounds of the present invention to inhibit the biosynthesis of cholesterol was measured by a method (designated CSI screen) which utilizes the procedure described by R. E. Dugan et al, Archiv. Biochem. Biophys., (1972), 152, 21-27. In this method, the level of HMG-CoA enzyme activity in standard laboratory rats is increased by feeding the rats a chow diet containing 5% cholestyramine for four days, after which the rats are sacrificed.
The rat livers are homogenized, and the incorporation of 14C-acetate into nonsaponifiable lipid by the rat liver homogenate is measured. The micromolar concentration of compound required for 50% inhibition of sterol synthesis over a one-hour period is measured, and expressed as an IC50 value.
The activities of several representative examples of compounds in accordance with the present invention appear in Table 1.

| pIC50 | SMILES |
| --- | --- |
| 6.89 | Cc1nc(C)c(/C=C/[C@@H]2C[C@@H](O)CC(=O)O2)c(-c2ccc(F)cc2)n1 (relative stereo) [[4α, 6β(E)]-6-[2-[4-(4-Fluorophenyl)-2,6-dimethyl-5-pyrimidinyl]ethenyl]tetrahydro-4-hydroxy-2H-pyran-2-one] |
| 6.82 | Cc1nc(-c2ccccc2)nc(-c2ccc(F)cc2)c1/C=C/[C@@H]1C[C@@H](O)CC(=O)O1 (relative stereo) [[4α, 6β(E)]-6-[2-[4-(4-Fluorophenyl)-6-methyl-2-phenyl-5-pyrimidinyl]ethenyl]tetrahydro-4-hydroxy-2H-pyran-2-one] |
| 6.66 | Cc1cc(C)cc(-c2nc(-c3ccccc3)nc(C)c2/C=C/[C@@H]2C[C@@H](O)CC(=O)O2)c1 (relative stereo) [[4α, 6β(E)]-6-[2-[4-(3,5-Dimethylphenyl)-6-methyl-2-phenyl-5-pyrimidinyl]ethenyl]-tetrahydro-4-hydroxy-2H-pyran-2-one] |
